Data set [1] is described as follows: Mouse 6-hour PK study. The following applies: in vivo, mouse 6-hour PK.
Data set [2] can be described thus: Ligand facilitated Fe(III) efflux from liposomes. As to conditions: efflux rate k at 10 μM ligand concentration; ferrozine absorbance 562 nm, 120 min kinetic read. More on the design: unit not given here. Type of data set: biochemical. A digest of the protocol: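 POPC/cholesterol liposomes loaded with Fe(III) citrate in MES/Tris pH 7.0, diluted to 1 mM phosphorus in ascorbate buffer with 1 mM ferrozine outside. Ligand at 1.25–40 µM; absorbance at 562 nm read every 60 s for 120 min. Efflux rate k fitted by single-phase association, averaged over triplicates, compared at 10 µM.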

Each structure is given as a SMILES string.

`CC(C)c1cccc(=O)c(O)c1` [hinokitiol, reference compound]: in data set [1] (read-out: AUClast 0-6 hr), the AUC(0-t) stood at 584 ng·h/mL. Also, in data set [1] (read-out: Cmax), the maximum concentration (Cmax) amounted to 956 ng/mL. Also, the half-life in data set [1] (read-out: t1/2 (converted)) was 1.11 h. Also, the “Liposome Fe transport kefflux at 10 μM” value in data set [2] is 7.77.

By Cmax is commonly meant the peak of the concentration-time curve.

For the origin of these results see US20230406803A1, “TROPOLONE DERIVATIVES AND TAUTOMERS THEREOF FOR IRON REGULATION IN ANIMALS” (Kinesid Therapeutics, Inc, priority 2020, published 2023).
